“Also recorded” adds a separate entry of the source.

In one assay the test system is MDA-MB-231 cells. The assay is described as follows: Cell apoptosis analysis (annexin V-FITC/PI). It is filed as cell-based. The conditions noted are these: MDA-MB-231, IC50 dose, 24 h. How it is done:
Annexin-V-FITC Apoptosis Detection Kit (Biovision, USA) was used to determine apoptotic cells according to manufacturer's instructions. Briefly, MDA-MB 231 cells (2 × 10^5 cells) were seeded in 6-well plates and cultured for 24 h. […] Cells were collected, washed with PBS and centrifuged. The cells were re-suspended in 500 μL of 1× binding buffer. 5 μL of annexin V-FITC and 5 μL of propidium iodide (PI […]) were added and the cells were incubated in the dark at room temperature for 5 min. The fluorescence of the stained cells was analyzed by flow cytometry using FACSCalibur (BD Biosciences, Mountain View, CA). The data were analyzed using the CellQuest software (BD Biosciences).[53,54]

The subject of assay [1] is β-tubulin mRNA in MDA-MB-231 cells. Briefly: Tubulin expression assay (real-time PCR). It is filed as cell-based. The conditions noted are these: MDA-MB-231, IC50 dose, 48 h, normalized to β-actin. As to the method: The cells were seeded in a six-well plate at a concentration of 3 × 10^5 cells per well. […] The cells were washed, collected and centrifuged at 2500 rpm for 15 min at 4 °C. The total RNA isolation kit (RNeasy extraction kit – QIAGEN) was used to isolate RNA according to the manufacturer's instructions.
Gene expression of β-tubulin was determined using iScript One-Step RT-PCR kit with SYBR Green (BIORAD) according to the manufacturer protocol. Primers sequences used for qPCR are illustrated in (Table 5). The genes expression was normalized to β-actin as the housekeeping gene. The protocol used was cDNA synthesis for 10 min at 50 °C, iScript Reverse transcriptase inactivation for 5 min at 95 °C and PCR cycling and detection (30 to 45 cycles): 10 s at 95 °C and 30 s at 55 °C to 60 °C.
In general terms: In qPCR the cycle at which signal appears reflects the starting amount.

For `CCc1cccc2cc(-c3cc(-c4cc(OC)c(OC)c(OC)c4)[nH]c(=O)c3C#N)c(Cl)nc12` [Compound 4c, 4-(2-Chloro-8-ethylquinolin-3-yl)-2-oxo-6-(3,4,5-trimethoxyphenyl)-1,2-dihydropyridine-3-carbonitrile], in the assay with MDA-MB-231 cells, the “Early Apoptosis (%)” value was 7.44 ± 1.59%, the “Late Apoptosis (%)” value was 17.1 ± 1.9% and the “Necrosis (%)” value is listed as 4.61 + 2%. Moreover, the “β-tubulin mRNA levels (relative gene expression) vs non-treated cells” value in assay [1] is on record as “notably reduced; also recorded: significantly suppressed; also recorded: markedly reduced”.

Source of the values: article PMC11240139, “Exploring the antitumor potential of novel quinoline derivatives via tubulin polymerization inhibition in breast cancer; design, synthesis and molecular docking” (RSC Advances, 2024).
